Activity calls are given as the source filed them.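 Rule for the calls: active = fitted curve reaches -35% activity change at a concentration below twice the top valid dose tested; inactive = the rest, including effects opposite to the expected direction.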
Test: A673 Ewing sarcoma viability loss – cell-based, CellTiter-Glo luminescence, cherry-pick retest, confirmation (AID 720587)
Conditions: A673 Ewing sarcoma viability, CellTiter-Glo ATP luminescence, 72 h; at 23.5 µM (top of the series)
With `O=S(=O)(c1ccc(F)cc1)N1C[C@H]2[C@@H](c3ccccc31)[C@H](CO)N2Cc1ccccc1Cl` the activity change, negative = cytotoxicity was -16.4% (inactive). With `COc1ccccc1NC(=O)N1[C@@H]2CNC[C@H]1[C@@H]2c1ccc(-c2ccc(C#N)cc2)cc1` the activity change, negative = cytotoxicity was 13.3% (inactive). In the case of `CCCNC(=O)N1[C@H](C#N)[C@H](c2ccc(C#Cc3cccc(F)c3)cc2)[C@H]1CO`, the activity change, negative = cytotoxicity is reported as 5% (inactive). For `N#C[C@H]1N[C@H](CO)[C@H]1c1ccc(C#Cc2ccccc2F)cc1`, the activity change, negative = cytotoxicity was 3.42% (inactive). With `COC(=O)C[C@@H]1CC[C@@H]2[C@H](COc3ccc(NC(=O)c4cccc(F)c4)cc3C(=O)N2C)O1` the activity change, negative = cytotoxicity was -1.57% (inactive).

Same assay, conditions: A673 Ewing sarcoma viability, CellTiter-Glo ATP luminescence, 72 h; at 26 µM (top of the series)
For `CC(C)NC(=O)N(C)C[C@@H]1Oc2cc(C#Cc3ccc(F)cc3)ccc2S(=O)(=O)N([C@H](C)CO)C[C@H]1C`, the activity change, negative = cytotoxicity was -18.2% (inactive). For `Cc1ccsc1C(=O)OCC(=O)c1cc(C)n(C)c1C`, the activity change, negative = cytotoxicity was -0.814% (inactive). With `Cc1ccc(-c2ccc3c(c2)O[C@@H](CN(C)C(=O)Nc2ccc(F)cc2)[C@H](C)CN([C@@H](C)CO)S3(=O)=O)cc1` the activity change, negative = cytotoxicity was 0.801% (inactive). With `COC(=O)Cc1[nH]n(-c2nc3ccccc3s2)c(=O)c1C(C)=Nc1ccc(C)cc1` the activity change, negative = cytotoxicity was -10.7% (inactive). In the case of `Cc1cc(Br)ccc1N=C1C(=O)Nc2ccccc21`, the activity change, negative = cytotoxicity is reported as -19% (inactive). For `Cc1ccc(C(CC(=O)O)Nc2nc(N3CCOCC3)nc(N3CCOCC3)n2)cc1` (stereo not drawn), the activity change, negative = cytotoxicity was 16.9% (inactive). For `Cc1ccsc1C(=O)OCC(=O)NCCC1=CCCCC1`, the activity change, negative = cytotoxicity was 2.01% (inactive). In the case of `O=C(Nc1cccc(Oc2ccc3c(c2)C(=O)NC3=O)c1)c1cccs1`, the activity change, negative = cytotoxicity is reported as -6.77% (inactive). For `N#C[C@@H]1[C@H](c2ccc(C#Cc3ccccc3F)cc2)[C@@H](CO)N1C(=O)c1cccnc1`, the activity change, negative = cytotoxicity was 1.54% (inactive). In the case of `C/C(=N\Nc1cccc2cccnc12)c1ccccn1`, the activity change, negative = cytotoxicity is reported as -0.624% (inactive). With `COC(=O)Cc1ccc(NC(=O)c2ccccc2Cl)cc1` the activity change, negative = cytotoxicity was 5% (inactive). With `COc1cc(/C=N/NS(=O)(=O)c2ccc3ccccc3c2)ccc1OCc1ccc(C(=O)O)cc1` the activity change, negative = cytotoxicity was 0.172% (inactive). In the case of `CCCn1nnc(NC(=S)NC(=O)C(C)(C)C)n1`, the activity change, negative = cytotoxicity is reported as -3.83% (inactive). With `CCOC(=O)c1c(-c2ccc(C)cc2)csc1NC(=O)CCN1CCOCC1` the activity change, negative = cytotoxicity was 3.44% (inactive). In the case of `C/C=C/c1ccc(C2[C@@H]3CN(C(=O)Cc4ccccc4)C[C@H]2N3)cc1` (stereo partly drawn), the activity change, negative = cytotoxicity is reported as -1.54% (inactive). With `CN(C)C(=O)c1ccc(-c2ccccc2[C@@H]2[C@@H](CO)N(C(=O)C3CC3)[C@H]2C#N)cc1` the activity change, negative = cytotoxicity was 0.679% (inactive). With `CC(=O)c1ccc(N(C(=O)Cn2nnc3ccccc32)C(C(=O)NCc2ccccc2)c2ccccn2)cc1` (stereo not drawn) the activity change, negative = cytotoxicity was 3.66% (inactive). For `COc1ccc(Nc2oc(COc3ccccc3OC)nc2C#N)cc1`, the activity change, negative = cytotoxicity was 2.48% (inactive). In the case of `COc1ccc(/C=N/Nc2ccc(C(=O)O)cc2)cc1Br`, the activity change, negative = cytotoxicity is reported as -2.31% (inactive). In the case of `CN(C)C(=O)c1cccc(-c2ccc(C3[C@@H]4CN(Cc5nccs5)C[C@H]3N4)cc2)c1` (stereo partly drawn), the activity change, negative = cytotoxicity is reported as -4.24% (inactive). With `CC(=O)Nc1ccc(S(=O)(=O)Nc2ccc(N3CCCCC3)cc2)cc1` the activity change, negative = cytotoxicity was -16.3% (inactive). In the case of `O=C(CN1C(=O)c2ccccc2S1(=O)=O)c1ccc(F)cc1`, the activity change, negative = cytotoxicity is reported as -6.39% (inactive). With `CCNC(=O)[C@@H]1[C@@H](CO)[C@@H]2Cn3c(ccc(C4=CCCCC4)c3=O)[C@H]1N2CC` the activity change, negative = cytotoxicity was -1.43% (inactive). For `CC(=O)Nc1ccc(OCC(=O)N(CC(C)C)C2CCS(=O)(=O)C2)cc1` (stereo not drawn), the activity change, negative = cytotoxicity was 8.05% (inactive). With `C[C@@H]1CN([C@@H](C)CO)S(=O)(=O)c2ccc(C#CCN(C)C)cc2O[C@@H]1CN(C)Cc1ccncc1` the activity change, negative = cytotoxicity was -10.8% (inactive). In the case of `C[C@H]1CN([C@@H](C)CO)C(=O)c2cc(NS(=O)(=O)c3ccc(Cl)cc3)ccc2O[C@H]1CN(C)Cc1ccc(Cl)c(Cl)c1`, the activity change, negative = cytotoxicity is reported as 4.93% (inactive). In the case of `O=C(O)c1cccc(N/N=C/c2cccs2)c1`, the activity change, negative = cytotoxicity is reported as -8.12% (inactive). With `Cc1noc(C)c1NC(=O)Nc1ccc2c(c1)CC(=O)N([C@@H](C)CO)C[C@@H](C)[C@@H](CN(C)Cc1ccc(Cl)c(Cl)c1)O2` the activity change, negative = cytotoxicity was 0.825% (inactive). For `Cc1occc1-c1n[nH]c(=S)n1C`, the activity change, negative = cytotoxicity was 1.91% (inactive). In the case of `O=C(O)c1ccc(N/N=C/c2ccc(OC(=O)c3cccc(Cl)c3)cc2)cc1`, the activity change, negative = cytotoxicity is reported as -8.45% (inactive). In the case of `Cc1ccc(/C=N/Nc2ccc3ccccc3n2)o1`, the activity change, negative = cytotoxicity is reported as -3.75% (inactive). For `CC(C)CN(C(=O)CN1CCOCC1)c1c(N)n(CC(C)C)c(=O)[nH]c1=O`, the activity change, negative = cytotoxicity was -1.6% (inactive). For `COc1cc(/C=N/NS(=O)(=O)c2ccc(C)cc2)ccc1OCc1cccc(C(=O)O)c1`, the activity change, negative = cytotoxicity was -3.14% (inactive). For `CCc1cnc(N2[C@H](C#N)[C@H](c3ccc(C#Cc4ccccc4F)cc3)[C@H]2CO)s1`, the activity change, negative = cytotoxicity was -10.8% (inactive). For `CCC(C)Cn1c(O)cc2nn(-c3nc4ccccc4s3)c(=O)c-2c1C` (stereo not drawn), the activity change, negative = cytotoxicity was -13.1% (inactive). In the case of `Cc1csc(NC(=O)CCc2c(C)nc3cc(-c4ccc(Cl)cc4)nn3c2C)n1`, the activity change, negative = cytotoxicity is reported as 1.02% (inactive). With `N#C[C@H]1[C@H](c2ccc(C#Cc3ccccc3F)cc2)[C@@H](CO)N1C(=O)C1CCOCC1` the activity change, negative = cytotoxicity was -1.72% (inactive). With `COc1ccc2cc(C(N)=O)/c(=N\NC(=O)c3ccccc3)oc2c1` the activity change, negative = cytotoxicity was -2% (inactive). In the case of `CC(C)CC(NC(=O)c1cccs1)c1nnc(SCc2ccc(Cl)c(Cl)c2)n1C` (stereo not drawn), the activity change, negative = cytotoxicity is reported as 6.55% (inactive). With `C[C@@H]1CN([C@@H](C)CO)C(=O)Cc2cc(NC(=O)Cn3cnnn3)ccc2O[C@@H]1CN(C)Cc1ccc(Oc2ccccc2)cc1` the activity change, negative = cytotoxicity was 8.72% (inactive). With `CCOc1ccc(-c2cc(CCCC(=O)NCc3ccc(C)cc3)no2)cc1` the activity change, negative = cytotoxicity was -9.1% (inactive). In the case of `COc1ccc2nc(-c3ccc(F)cc3)sc2c1`, the activity change, negative = cytotoxicity is reported as -14.9% (inactive). For `O=C(NC(=O)c1ccccc1)Nc1ccccc1`, the activity change, negative = cytotoxicity was -3.17% (inactive). With `Cc1ccc(S(=O)(=O)N(C)C[C@H]2Oc3c(cccc3N(C)C)C(=O)N([C@@H](C)CO)C[C@@H]2C)cc1` the activity change, negative = cytotoxicity was -1.85% (inactive). With `Nc1ccc(-c2cc3ccccc3oc2=O)cc1` the activity change, negative = cytotoxicity was 3.89% (inactive). In the case of `CCN(CC)C(=O)CN1C(=O)C(=O)c2ccccc21`, the activity change, negative = cytotoxicity is reported as -0.157% (inactive). For `CC(=O)Nc1cc(C(=O)NCc2ccco2)ccc1Sc1ccc(F)cc1`, the activity change, negative = cytotoxicity was 8.55% (inactive). With `O=C(NCCc1ccccc1)c1ccccc1NC(=O)C1CCCO1` (stereo not drawn) the activity change, negative = cytotoxicity was 0.338% (inactive). In the case of `CCCNC(=O)N1[C@H](C#N)[C@H](c2ccc(C#Cc3ccc(F)cc3)cc2)[C@H]1CO`, the activity change, negative = cytotoxicity is reported as -13.6% (inactive). For `Cc1ccccc1N=Nc1c(O)n(C)c2ccccc12`, the activity change, negative = cytotoxicity was -1.37% (inactive). For `CCCNC(=O)[C@@H]1[C@@H](CO)[C@@H]2Cn3c(ccc(-c4ccccc4)c3=O)[C@H]1N2C(=O)CC`, the activity change, negative = cytotoxicity was 14.5% (inactive). In the case of `Cc1cc2sc3ccc(C#CC4(O)CCCCC4)cc3c(=O)c2cc1C`, the activity change, negative = cytotoxicity is reported as -2.73% (inactive). In the case of `O=C(O)c1ccc(N/N=C/c2c[nH]c3ccccc23)cc1`, the activity change, negative = cytotoxicity is reported as -1.6% (inactive). With `COc1ccccc1NS(=O)(=O)c1cc(NC(=O)c2cc3ccccc3oc2=O)ccc1C` the activity change, negative = cytotoxicity was 13% (inactive). With `N#Cc1cccc(-c2ccc(C3[C@@H]4CN(C(=O)Cc5ccncc5)C[C@H]3N4)cc2)c1` (stereo partly drawn) the activity change, negative = cytotoxicity was -0.912% (inactive). For `CCOc1ccc(/C=C2\CCc3ccccc3C2=O)cc1`, the activity change, negative = cytotoxicity was -1.55% (inactive). With `COc1ccc(C(=O)OCC(=O)Nc2ccc(Cl)c(C(F)(F)F)c2)c(OC)c1OC` the activity change, negative = cytotoxicity was 2.74% (inactive). For `Cc1ccc(/C=C2\SC(=S)N(CCC(=O)NNC(=O)c3ccccc3O)C2=O)cc1`, the activity change, negative = cytotoxicity was 6.17% (inactive). In the case of `CCOc1ccccc1CNC(=O)c1ccc(Sc2ccc(Cl)cc2)c(NC(C)=O)c1`, the activity change, negative = cytotoxicity is reported as -0.342% (inactive). With `O=C(CN1C(=O)C(=O)c2ccccc21)c1ccc(Cl)cc1` the activity change, negative = cytotoxicity was -6.17% (inactive). In the case of `N#C[C@@H]1[C@H](c2ccc(C#Cc3cccc(F)c3)cc2)[C@@H](CO)N1C(=O)C1CCCC1`, the activity change, negative = cytotoxicity is reported as -2.07% (inactive). In the case of `CC(C)(C)C(=O)Nc1ccc(N=Nc2ccccc2)cc1`, the activity change, negative = cytotoxicity is reported as -13.9% (inactive). With `COc1ccc(NC(=O)N(C)[C@H]2C[C@H]3c4[nH]c5ccccc5c4CCN3C(=O)[C@H]2CO)cc1` the activity change, negative = cytotoxicity was 5.76% (inactive). In the case of `COc1cccc(S(=O)(=O)N(C)C[C@H]2OCc3cnnn3CCCC(=O)N([C@@H](C)CO)C[C@H]2C)c1`, the activity change, negative = cytotoxicity is reported as 0.226% (inactive). For `CCCCN=C(NNc1ccc(Br)cc1)C(=O)OCC`, the activity change, negative = cytotoxicity was -5.32% (inactive). For `O=C1NC(=O)N(CCc2ccc(F)cc2)C(=O)/C1=C/C=C/c1ccccc1`, the activity change, negative = cytotoxicity was 0.109% (inactive). For `COC(=O)C[C@@H]1CC[C@@H]2[C@H](COc3ccc(NC(=O)c4ccccc4)cc3C(=O)N2C)O1`, the activity change, negative = cytotoxicity was -5.14% (inactive). With `O=C(NC1CCCC1)C(c1ccccc1)n1c(CSCCOc2ccccc2)nc2ccccc21` (stereo not drawn) the activity change, negative = cytotoxicity was -7.19% (inactive). In the case of `C/C=C/c1ccc([C@H]2[C@@H](CO)N3C(=O)CN(S(=O)(=O)c4cccc(F)c4)C[C@@H]23)cc1`, the activity change, negative = cytotoxicity is reported as -5.5% (inactive). With `CC(Oc1cccc(Cl)c1)C(=O)NCCCCc1ccccc1` (stereo not drawn) the activity change, negative = cytotoxicity was 3.26% (inactive). In the case of `COc1ccc(C(=O)NCCNc2nc3cc(C)cc(C)c3cc2C#N)c(OC)c1`, the activity change, negative = cytotoxicity is reported as 0.961% (inactive). In the case of `C(=N\Nc1ccc2ccccc2n1)/c1ccc2c(c1)OCO2`, the activity change, negative = cytotoxicity is reported as -5.01% (inactive). With `CCc1ccc(/C=C2\SC(=S)N(CCC(=O)Nc3cc(C)on3)C2=O)cc1` the activity change, negative = cytotoxicity was 6.27% (inactive).
